The values below come from patent publication US9821000B2, “Compounds, compositions and corresponding uses for preventing and/or treating of dyslipidemia” (CENTRE NATIONAL DE LA RECHERCHE SCIENTIFIQUE (CNRS), priority 2013, dated 2017).

SMILES strings stand for the structures.

This test relates to UPR response. The experiment in a line: UPR triggering test (4xUPRE-LacZ reporter, β-galactosidase activity) in hem1Δ yeast. The test is classed as cell-based, Saccharomyces cerevisiae. Conditions: hem1Δ in liquid medium inducing SFA accumulation, 200 μM compound. From the text:
A plasmidic construction carrying a fusion gene, corresponding to the encoding sequence of the gene LacZ placed under dependence of an artificial promoter containing four UPR elements (UPRE) was introduced into a hem1Δf yeast strain, as described in Pineau et al. (2009). During an induction of the UPR response, the Hac1p/XBP1p transcription is activated and gets fixed on the UPR elements of the fusion gene, leading to the transcription of the LacZ gene. With LacZ encoding β-galactosidase, the level of induction of UPR is measured to detect the corresponding enzyme activity. The hem1Δ yeast strain was cultivated in a liquid medium inducing the accumulation of SFA without other addition (Ø), or in the same medium supplemented with 200 μM of oleic acid, OAG or LPA as indicated. A.U.: arbitrary units.
The hem1Δ strain transformed by the plasmid pPW344 [2 μ URA34×UPRE-LacZ (Patil et al., 2004)] is cultivated in liquid medium YPG^A, YPG or YPG+200 μM of compound to be tested in aerobic conditions, under stirring and at 28° C. for 7 h, starting from an initial cell concentration of 2·10^6 cells/mL. At the end of the culture, 10^8 cells are collected in order to quantify the beta-galactosidase (β-gal) activity resulting from the expression of the LacZ trans gene (in the case of a triggering of UPR). […]

With `CCCCCCCC/C=C\CCCCCCCC(=O)OC[C@@H](O)COP(=O)(O)O` [LPA, 1-oleoyl-sn-glycerol-3-phosphate], the “UPR response in lipo-intoxicated yeasts (β-galactosidase activity)” value is listed as “reduce the UPR response”.

`CCCCCCCC/C=C\CCCCCCCC(=O)OC[C@H](CO)OC(C)=O` [OAG, 1-oleoyl-2-acetyl-sn-glycerol]: the “UPR response in lipo-intoxicated yeasts (β-galactosidase activity)” value is on record as “reduce the UPR response”.
